Measured values: patent publication US7118895B2, “Process for producing aglycon by using diglycosidase and flavor-improved food containing the aglycon and converting agent to be used in the process” (Amano Enzyme Inc., priority 2000, dated 2006)

Tested on: Crude diglycosidase
Experiment: Examination of substrate concentration in the conversion into isoflavone aglycons by diglycosidase using soybean materials;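 on Decomposition efficiency: ratio of each glycoside/aglycon within its isoflavone family: percent of the isoflavone family total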
Type: biochemical, Penicillium multicolor IAM7153
Details: for Decomposition efficiency: ratio of each glycoside/aglycon within its isoflavone family: concentrated soybean protein
Description: Into 20 mM acetate buffer of pH 4.0 was suspended 0.1 g, 0.25 g, 0.5 g, 1.0 g, or 1.5 g of each of various soybean materials (roasted soy flour (manufactured by Fuji Shokuryo K.K.), soymilk (manufactured by Gitoh Shokuhin K.K.), defatted soybean (manufactured by Fuji Seiyu K.K.), concentrated soybean protein (manufactured by Fuji Seiyu K.K.)). The pH of the suspension was measured and the liquid volume was adjusted to 4.5 mL while the pH was adjusted to 4.0 with 1N hydrochloric acid. An enzyme solution wherein diglycosidase activity of crude diglycosidase was adjusted to 1.88 AU/mL was added thereto in an amount of 0.5 mL, whereby the final liquid volume was 5.0 mL. Namely, the ratio of the soybean material in the reaction mixture was 2%, 5%, 10%, 20%, or 30% (w/v). The whole was reacted at 55° C. under shaking. To 5 mL of the reaction mixture was added 7 mL of ethanol after 0, 1, 3, and 6 hours of the reaction. After ultrasonication, the mixture was thoroughly mixed. It was subjected to centrifugal separation at 2,000 rpm and room temperature for 5 minutes. Then, […] of the supernatant was placed in a 1.5 mL microtube and was subjected to centrifugal separation at 15,000 rpm and 4° C. for 10 minutes. The supernatant was filtered through a filter and each sample was suitably diluted by a factor of 1 to 6 depending on the substrate concentration. Fifty μL of the diluted solution was analyzed by HLPC (Tables 27 to 38).

[1] = substrate concentration 2%, heat treatment of enzyme no, reaction time 0 h
[2] = substrate concentration 2%, heat treatment of enzyme no, reaction time 1 h
[3] = substrate concentration 2%, heat treatment of enzyme no, reaction time 3 h
[4] = substrate concentration 2%, heat treatment of enzyme no, reaction time 6 h
[5] = substrate concentration 2%, heat treatment of enzyme yes, reaction time 6 h
[6] = substrate concentration 5%, heat treatment of enzyme no, reaction time 0 h
[7] = substrate concentration 5%, heat treatment of enzyme no, reaction time 3 h
[8] = substrate concentration 5%, heat treatment of enzyme no, reaction time 6 h
[9] = substrate concentration 5%, heat treatment of enzyme yes, reaction time 6 h
[10] = substrate concentration 10%, heat treatment of enzyme no, reaction time 0 h
[11] = substrate concentration 10%, heat treatment of enzyme no, reaction time 1 h
[12] = substrate concentration 10%, heat treatment of enzyme no, reaction time 3 h
[13] = substrate concentration 10%, heat treatment of enzyme no, reaction time 6 h
[14] = substrate concentration 10%, heat treatment of enzyme yes, reaction time 6 h
[15] = substrate concentration 20%, heat treatment of enzyme no, reaction time 0 h
[16] = substrate concentration 20%, heat treatment of enzyme no, reaction time 3 h
[17] = substrate concentration 20%, heat treatment of enzyme no, reaction time 6 h
[18] = substrate concentration 20%, heat treatment of enzyme yes, reaction time 6 h
[19] = substrate concentration 30%, heat treatment of enzyme no, reaction time 0 h
[20] = substrate concentration 30%, heat treatment of enzyme no, reaction time 1 h
[21] = substrate concentration 30%, heat treatment of enzyme no, reaction time 3 h
[22] = substrate concentration 30%, heat treatment of enzyme no, reaction time 6 h
[23] = substrate concentration 30%, heat treatment of enzyme yes, reaction time 6 h
[24] = substrate concentration 5%, heat treatment of enzyme no, reaction time 1 h
[25] = substrate concentration 20%, heat treatment of enzyme no, reaction time 1 h

## CC(=O)OC[C@H]1O[C@@H](Oc2ccc3c(=O)c(-c4ccc(O)cc4)coc3c2)[C@H](O)[C@@H](O)[C@@H]1O [acetly-daidzin]
[1]
  Decomposition efficiency: ratio of each glycoside/aglycon within its isoflavone family: 44.0%
[2]
  Decomposition efficiency: ratio of each glycoside/aglycon within its isoflavone family: 17.8%
[3]
  Decomposition efficiency: ratio of each glycoside/aglycon within its isoflavone family: 5.3%
[4]
  Decomposition efficiency: ratio of each glycoside/aglycon within its isoflavone family: not detected
[5]
  Decomposition efficiency: ratio of each glycoside/aglycon within its isoflavone family: 43.2%
[6]
  Decomposition efficiency: ratio of each glycoside/aglycon within its isoflavone family: 44.0%
[7]
  Decomposition efficiency: ratio of each glycoside/aglycon within its isoflavone family: 20.5%
[8]
  Decomposition efficiency: ratio of each glycoside/aglycon within its isoflavone family: 12.0%
[9]
  Decomposition efficiency: ratio of each glycoside/aglycon within its isoflavone family: 43.0%
[10]
  Decomposition efficiency: ratio of each glycoside/aglycon within its isoflavone family: 44.2%
[11]
  Decomposition efficiency: ratio of each glycoside/aglycon within its isoflavone family: 39.7%
[12]
  Decomposition efficiency: ratio of each glycoside/aglycon within its isoflavone family: 32.9%
[13]
  Decomposition efficiency: ratio of each glycoside/aglycon within its isoflavone family: 26.9%
[14]
  Decomposition efficiency: ratio of each glycoside/aglycon within its isoflavone family: 43.4%
[15]
  Decomposition efficiency: ratio of each glycoside/aglycon within its isoflavone family: 44.1%
[16]
  Decomposition efficiency: ratio of each glycoside/aglycon within its isoflavone family: 41.5%
[17]
  Decomposition efficiency: ratio of each glycoside/aglycon within its isoflavone family: 37.9%
[18]
  Decomposition efficiency: ratio of each glycoside/aglycon within its isoflavone family: 44.0%
[19]
  Decomposition efficiency: ratio of each glycoside/aglycon within its isoflavone family: 49.2%
[20]
  Decomposition efficiency: ratio of each glycoside/aglycon within its isoflavone family: 56.6%
[21]
  Decomposition efficiency: ratio of each glycoside/aglycon within its isoflavone family: 49.9%
[22]
  Decomposition efficiency: ratio of each glycoside/aglycon within its isoflavone family: 42.8%
[23]
  Decomposition efficiency: ratio of each glycoside/aglycon within its isoflavone family: 48.4%

## O=c1c(-c2ccc(O)cc2)coc2cc(O[C@@H]3O[C@H](CO)[C@@H](O)[C@H](O)[C@H]3O)ccc12 [diadzin]
[1]
  Decomposition efficiency: ratio of each glycoside/aglycon within its isoflavone family: 52.8%
[2]
  Decomposition efficiency: ratio of each glycoside/aglycon within its isoflavone family: not detected
[3]
  Decomposition efficiency: ratio of each glycoside/aglycon within its isoflavone family: not detected
[4]
  Decomposition efficiency: ratio of each glycoside/aglycon within its isoflavone family: not detected
[5]
  Decomposition efficiency: ratio of each glycoside/aglycon within its isoflavone family: 52.6%
[6]
  Decomposition efficiency: ratio of each glycoside/aglycon within its isoflavone family: 53.0%
[24]
  Decomposition efficiency: ratio of each glycoside/aglycon within its isoflavone family: not detected
[7]
  Decomposition efficiency: ratio of each glycoside/aglycon within its isoflavone family: not detected
[8]
  Decomposition efficiency: ratio of each glycoside/aglycon within its isoflavone family: not detected
[9]
  Decomposition efficiency: ratio of each glycoside/aglycon within its isoflavone family: 53.5%
[10]
  Decomposition efficiency: ratio of each glycoside/aglycon within its isoflavone family: 52.8%
[11]
  Decomposition efficiency: ratio of each glycoside/aglycon within its isoflavone family: 2.2%
[12]
  Decomposition efficiency: ratio of each glycoside/aglycon within its isoflavone family: not detected
[13]
  Decomposition efficiency: ratio of each glycoside/aglycon within its isoflavone family: not detected
[14]
  Decomposition efficiency: ratio of each glycoside/aglycon within its isoflavone family: 53.3%
[15]
  Decomposition efficiency: ratio of each glycoside/aglycon within its isoflavone family: 52.9%
[25]
  Decomposition efficiency: ratio of each glycoside/aglycon within its isoflavone family: 0.7%
[16]
  Decomposition efficiency: ratio of each glycoside/aglycon within its isoflavone family: not detected
[17]
  Decomposition efficiency: ratio of each glycoside/aglycon within its isoflavone family: not detected
[18]
  Decomposition efficiency: ratio of each glycoside/aglycon within its isoflavone family: 52.8%
[19]
  Decomposition efficiency: ratio of each glycoside/aglycon within its isoflavone family: 49.2%
[20]
  Decomposition efficiency: ratio of each glycoside/aglycon within its isoflavone family: 2.7%
[21]
  Decomposition efficiency: ratio of each glycoside/aglycon within its isoflavone family: not detected
[22]
  Decomposition efficiency: ratio of each glycoside/aglycon within its isoflavone family: not detected
[23]
  Decomposition efficiency: ratio of each glycoside/aglycon within its isoflavone family: 49.8%

## O=C(O)CC(=O)OC[C@H]1O[C@@H](Oc2ccc3c(=O)c(-c4ccc(O)cc4)coc3c2)[C@H](O)[C@@H](O)[C@@H]1O [malonydaidzin]
[1]
  Decomposition efficiency: ratio of each glycoside/aglycon within its isoflavone family: not detected
[2]
  Decomposition efficiency: ratio of each glycoside/aglycon within its isoflavone family: not detected
[3]
  Decomposition efficiency: ratio of each glycoside/aglycon within its isoflavone family: not detected
[4]
  Decomposition efficiency: ratio of each glycoside/aglycon within its isoflavone family: not detected
[5]
  Decomposition efficiency: ratio of each glycoside/aglycon within its isoflavone family: not detected
[6]
  Decomposition efficiency: ratio of each glycoside/aglycon within its isoflavone family: not detected
[24]
  Decomposition efficiency: ratio of each glycoside/aglycon within its isoflavone family: not detected
[7]
  Decomposition efficiency: ratio of each glycoside/aglycon within its isoflavone family: not detected
[8]
  Decomposition efficiency: ratio of each glycoside/aglycon within its isoflavone family: not detected
[9]
  Decomposition efficiency: ratio of each glycoside/aglycon within its isoflavone family: not detected
[10]
  Decomposition efficiency: ratio of each glycoside/aglycon within its isoflavone family: not detected
[11]
  Decomposition efficiency: ratio of each glycoside/aglycon within its isoflavone family: not detected
[12]
  Decomposition efficiency: ratio of each glycoside/aglycon within its isoflavone family: not detected
[13]
  Decomposition efficiency: ratio of each glycoside/aglycon within its isoflavone family: not detected
[14]
  Decomposition efficiency: ratio of each glycoside/aglycon within its isoflavone family: not detected
[15]
  Decomposition efficiency: ratio of each glycoside/aglycon within its isoflavone family: not detected
[25]
  Decomposition efficiency: ratio of each glycoside/aglycon within its isoflavone family: not detected
[16]
  Decomposition efficiency: ratio of each glycoside/aglycon within its isoflavone family: not detected
[17]
  Decomposition efficiency: ratio of each glycoside/aglycon within its isoflavone family: not detected
[18]
  Decomposition efficiency: ratio of each glycoside/aglycon within its isoflavone family: not detected
[19]
  Decomposition efficiency: ratio of each glycoside/aglycon within its isoflavone family: not detected
[20]
  Decomposition efficiency: ratio of each glycoside/aglycon within its isoflavone family: not detected
[21]
  Decomposition efficiency: ratio of each glycoside/aglycon within its isoflavone family: not detected
[22]
  Decomposition efficiency: ratio of each glycoside/aglycon within its isoflavone family: not detected
[23]
  Decomposition efficiency: ratio of each glycoside/aglycon within its isoflavone family: not detected

## O=c1c(-c2ccc(O)cc2)coc2cc(O[C@@H]3O[C@H](CO)[C@@H](O)[C@H](O)[C@H]3O)cc(O)c12 [genisitin]
[1]
  Decomposition efficiency of genistin family in defatted soybean: 37.7
[2]
  Decomposition efficiency of genistin family in defatted soybean: not detected
[3]
  Decomposition efficiency of genistin family in defatted soybean: not detected
[4]
  Decomposition efficiency of genistin family in defatted soybean: not detected
[5]
  Decomposition efficiency of genistin family in defatted soybean: 38.7
[6]
  Decomposition efficiency of genistin family in defatted soybean: 40.0
[24]
  Decomposition efficiency of genistin family in defatted soybean: not detected
[7]
  Decomposition efficiency of genistin family in defatted soybean: not detected
[8]
  Decomposition efficiency of genistin family in defatted soybean: not detected
[9]
  Decomposition efficiency of genistin family in defatted soybean: 41.8
[10]
  Decomposition efficiency of genistin family in defatted soybean: 42.4
[11]
  Decomposition efficiency of genistin family in defatted soybean: not detected
[12]
  Decomposition efficiency of genistin family in defatted soybean: not detected
[13]
  Decomposition efficiency of genistin family in defatted soybean: not detected
[14]
  Decomposition efficiency of genistin family in defatted soybean: 44.3
